Key:
[1] = Selectivity index, ratio of IC50 for human MRC5 cells to IC50 for chloroquine-resistant Plasmodium falciparum K1 infected in human erythrocytes; assay type: toxicity, cell-based; details: read-out: Ratio IC50
MRC5 = assay: Cytotoxicity against human MRC5 cells after 24 hrs by resazurin assay; assay type: cell-based; details: MRC5, 24 h
Plasmodium falciparum = assay: Antiplasmodial activity against chloroquine-resistant Plasmodium falciparum K1 infected in human erythrocytes measured after 72 hrs Malstat/NBT reagent based assay; assay type: functional, organism-based; details: K1, 72 h
[2] = test system: Mycobacterium tuberculosis; assay: Antimicrobial activity against Mycobacterium tuberculosis H37Ra ATCC 25177 after 7 days by luminometric method; assay type: functional, organism-based; details: H37Ra ATCC 25177, 168 h
[3] = Stability in human serum at 1 mM after 30 to 60 mins by UPLC method; assay type: ADME, cell-free; details: 1000 µM
[4] = Oral bioavailability in patient with malaria; assay type: ADME, organism-based; details: human, in vivo
[5] = Half life in patient with malaria; assay type: ADME, organism-based; details: human, in vivo
[6] = Selectivity index, ratio of IC50 for human MRC5 cells to IC50 for Mycobacterium tuberculosis H37Ra ATCC 25177; assay type: toxicity; details: read-out: Ratio IC50

SMILES	selectivity ratio [1]	IC50 (MRC5) [µM]	IC50 (Plasmodium falciparum) [nM]	IC50 [2] [µM]	Stability [3]	bioavailability [4] [%]	half-life [5] [min]	selectivity ratio [6]
CCCCCCCCCCCCOCCCOP(=O)(O)CCCC(=O)N(C)O	68	55.9	820	> 64				
CC(C)OC(=O)OCOP(=O)(CCCC(=O)N(C)O)OCOC(=O)OC(C)C	743	55.7	80	> 64	Stable			
O=CN(O)CCCP(=O)([O-])O.[Na+] [FOSMIDOMYCIN SODIUM]		> 64		> 64		30	120	
CN(O)C(=O)CCCP(=O)(O)O				> 64				
CCCCCCCCCCCCCCCCOCCCOP(=O)(O)CCCC(=O)N(C)O	26	24.5	950	> 64				
CCCCOCCCOP(=O)(O)CCCC(=O)N(C)O	> 4	> 64	16000	> 64				
CN(O)C(=O)CCCP(=O)(OCc1ccc(OC(=O)c2ccccc2)cc1)OCc1ccc(OC(=O)c2ccccc2)cc1	20	0.61	30	0.42	Stable			1.5
CC(=O)Oc1ccc(COP(=O)(CCCC(=O)N(C)O)OCc2ccc(OC(C)=O)cc2)cc1	32	15.5	490	19.7	Stable			0.8
CN(O)C(=O)CCCP(=O)(OCOC(=O)C(C)(C)C)OCOC(=O)C(C)(C)C	> 88	> 64	730	44.3	Stable			> 1.4
CCCCCCCCCCCCCCCCOCCCOP(=O)(CCCC(=O)N(C)O)OCCCOCCCCCCCCCCCCCCCC	> 1.5	> 64	42000	> 64				
CN(O)C(=O)CCCP(=O)(OCc1ccc(OC(=O)C(C)(C)C)cc1)OCc1ccc(OC(=O)C(C)(C)C)cc1	6.1	0.98	160	0.43	Stable			2.3
CC(C)C(=O)Oc1ccc(COP(=O)(CCCC(=O)N(C)O)OCc2ccc(OC(=O)C(C)C)cc2)cc1	7.3	0.99	140	0.64	Stable			1.6
CCCCCCCCOCCCOP(=O)(O)CCCC(=O)N(C)O	> 34	> 64	1900	> 64				
CC(=O)N(O)CCCP(=O)(O)O [FR-900098]				> 64				
CCCCCCCCC(=O)Oc1ccc(COP(=O)(CCCC(=O)N(C)O)OCc2ccc(OC(=O)CCCCCCCC)cc2)cc1	42	12.6	300	1.76	Stable			7.6
